Laboratory results published in patent publication US10925858B2, “S-nitrosoglutathione (GSNO) and GSNO reductase inhibitors for use in therapy” (MUSC FOUNDATION FOR RESEARCH DEVELOPMENT, priority 2017, dated 2021).

Experiments:
RhoA = RhoA activity assay in thrombin treated hBMVECs; type: cell-based, human; conditions: thrombin 0.1 unit/ml 5 min; L-NIO or FeTPPS 10 μM pretreated 30 min; GSNO or SIN-1 various concentrations pretreated 2 hr
Protocol: (§1) Cell culture: Primary human brain microvascular endothelial cells (hBMVECs) were purchased from Angio-Proteomie (Cat #: cAP-0002, Atlanta, Ga.). The cells were cultured in cell culture flasks or plates precoated with Quick Coating Solution (Angio-Proteomie; Cat #: cAP-01) and maintained in Endothelial Growth Medium (Angio-Proteomie; Cat #: cAP-02) at 37° C. under 5% CO2/95% air. When the cells were almost confluent, the medium was replaced with endothelial basal medium (Angio-Proteomie; Cat #: cAP-03) containing 0.5% fetal bovine serum (FBS; Life Technologies, Grand Island, N.Y.) about 8-12 hours before the experiment. No institutional approval was required for this study. The study was not pre-registered.
RhoA activity in hBMVECs was analyzed by RhoA Activation Assay Kit (Abeam Cat #: ab211164, Cambridge, Mass.). Briefly, following drug treatments, the cells were lysed with 1× Assay buffer provided in the kit. Lysates were centrifuged (14,000×g for 10 sec), and supernatants were incubated with agarose beads coupled to GST-Rhotekin-Rho binding domain (RBD) for 2 h at 4° C. Beads were then washed with 1× Assay buffer and GTP-bound RhoA was eluted with 2×SDS-PAGE sample buffer. Amounts of active (GTP-bound) RhoA were determined by Western blot analysis using antibody specific to RhoA (Abeam).

[1] = system: intracellular Ca^2+ ([Ca^2+]i) influx; assay: Assay for intracellular Ca2+ influx in thrombin treated hBMVECs; type: cell-based, human; conditions: thrombin 0.1 unit/ml; L-NIO or FeTPPS 10 μM; GSNO or SIN-1 various concentrations
Protocol: as §1, with “pre-registered. Intracellular Ca^2+ concentration ([Ca^2+]i) was measured with Fluo-4 Direct Calcium Assay Kit (Thermo Fisher Scientific, Cat #: F10471, Grand Island, N.Y.). Briefly, culture medium in the 96-well plate was replaced with a Ca^2+ sensitive dye Fluo-4 in an endothelial basal medium. After 30 min incubation, the dye was removed and cells were incubated with the original medium with or without the drugs at 37° C. for 15 min. Following thrombin treatment, time course changes of fluorescent intensity were quantified using a CLARIOstar multi-well fluorometer (BMG Labtech, Cary, N.C.).” for “pre-registered.”

myosin light chain (MLC) = assay: Western analysis of MLC phosphorylation (Ser19) in thrombin treated hBMVECs; type: cell-based, human; conditions: thrombin 0.1 unit/ml 5 min; L-NIO or FeTPPS 10 μM; GSNO or SIN-1 various concentrations
Protocol: as §1
Western immunoblot analysis was performed by standard method using 50 μg of cell lysates. Following the SDS-PAGE electrophoresis, proteins were transferred from the gel onto the Polyvinylidene fluoride membrane (GE Healthcare Life Sciences, Marlborough, Mass.). Membranes were blocked with non-fat dry milk (Santa Cruz Biotechnology) or I-Block™ (ThermoFisher Scientific, Waltham, Mass.) for detection of phospho-proteins and incubated with primary antibodies, such as MBP (Santa Cruz Biotech Cat #: sc13914; RRID: AB_648798), phospho-(Ser^19) MLC (Abeam, Cat #: ab2480; RRID: AB_303094), MLC (Abeam, Cat #: ab79935; RRID:AB_1952220), P-actin (Santa Cruz Biotechnology, Cat #: sc-47778; RRID:AB_2714189), phospho-eNOS (Ser^1177) (Cell Signaling, Cat #: 9571; RRID: AB_329837, Danvers, Mass.), eNOS (Cell Signaling, Cat #: 32027), RhoA (Santa Cruz Biotechnology; Cat #: sc418; RRID: AB_628218) or 3-nitrotyrosine (Abeam, Cat #: ab61392; RRID: AB_942087). Following washing, the membranes were incubated with horseradish peroxidase conjugated secondary antibody (Jackson Immunoresearch Lab, West Grove, Pa.), washed and then incubated with ECL reagent (Amersham Life Science, Pittsbrugh, Pa.), and exposed to Amersham Hyperfilm ECL film

[2] = system: protein-associated 3-nitrotyrosine; assay: Assay for protein-associated nitrotyrosine in hBMVECs; type: cell-based, human
Protocol: as §1
Cellular levels of protein-associated 3-nitrotyrosine were analyzed by ELISA Kit (Abeam, Cat #: ab116691) and Western blot analysis using antibody specific to 3-nitrotyrosine (Abeam, Cat #: ab61392). For the ELISA, hBMVECs were lysed in extraction buffer provided with the kit followed by centrifugation at 16,000×g 4° C. The cell lysate supernatants were subjected to protein quantification with Bio-Rad DC protein assay kit (Bio-Rad, Hercules, Calif.) and the equal amounts of proteins (500 μg) were loaded onto 96 well microplate coated with 3-nitrotyrosine capture antibody and followed by incubation with biotin-conjugated 3-nitrotyrosine detector antibody. Following washing, the plates were incubated with HRP-conjugated streptoavidin and the levels of 3-nitrotyrosine were measured by incubation with 3,3′,5,5′-tetramethylbenzidine solution and colorimetric analysis at […] using SpectraMax 190 Microplate Reader (Molecular Devices, Sunnyvale, Calif.). For analysis of degree of RhoA tyrosine nitration, the cell lysates were immunoprecipiated with antibody specific to 3-nitrotyrosine (Abeam) and the levels of tyrosine nitrated RhoA were analyzed by Western analysis for RhoA.

hBMVECs [3] = assay: Assay for F-actin stress fiber development in thrombin treated hBMVECs; type: cell-based, human; conditions: thrombin 0.1 unit/ml 30 min; GSNO 100 μM or SIN-1 100 μM pretreated 2 hr
Protocol: as §1
Assay for F-actin stress fiber development and endothelial cell contraction: hBMVECs were cultured on fibronectin-coated chamber slides (BD Bioscience). Following drug treatments, the cells were fixed with 4% (wt/vol) paraformaldehyde, permeabilized by the addition of 0.25% Triton X-100, and blocked by 2% bovine serum albumin (BSA) in phosphate buffered saline (PBS). […] The density of fluorescence was analyzed by ImageJ (NIH, Bethesda, Md.).

hBMVECs [4] = assay: Assay of trans-endothelial electrical resistance (TEER) in thrombin treated hBMVECs; type: cell-based, human; conditions: thrombin 0.1 unit/ml; GSNO 100 μM or SIN-1 500 μM pretreated 2 hr
Protocol: as §1, with “pre-registered. For evaluation of the endothelial barrier function, hBMVECs were plated on fibronectin-coated polycarbonate filters (Transwell system, Corning, Midland, N.C.) containing Endothelial Growth Medium (Angio-Proteomie Cat #: cAP-02). The medium was renewed every other day. Five days after seeding, the medium was replaced with Endothelial Basal Medium (Angio-Proteomie Cat #: cAP-03) containing 0.5% FBS and incubated for 2 days. Following drug treatments, transendothelial electrical resistance (TEER) was measured by EVOM2 (Word Precision Instruments) as described previously (Li et al., 2006).” for “pre-registered.”

EAE mice = assay: Active EAE (MOG35-55), clinical score; type: in vivo, C57BL/6 mice
Protocol: Female C57BL/6 mice of 8-12 weeks of age, purchased from Jackson Laboratory, were provided with food and water ad libitum and were kept in pathogen free animal care facility of Medical University of South Carolina (MUSC) throughout the study. […] EAE was induced as described previously (Nath et al., 2009). Briefly, mice were immunized subcutaneously in the flank regions with MOG35-55 peptide (MOG; 200 μg; Peptide International) emulsified (1:1) in 100 ul complete Freund's adjuvant (CFA) on day 0 and day 7. Additionally, 300 ng of Pertussis toxin (Sigma-Aldrich, St. Louis, Mo.) was given on day 0 and day 2 by i.p. injection. Pertussis toxin used as per the standardized protocol reported by us and other investigators for the induction of EAE (Nath et al., 2009). Similarly, healthy control group received subcutaneous injection of PBS and CFA emulsion on day 0 and day 7. Clinical signs of EAE were scored by examiners blinded to experimental treatments using the following scale: 0=no clinical signs of disease; 1=piloerection and sluggish; 2=limp tail (ataxia); 2.5=ataxia with partial hind limb paralysis; 3=full paralysis of hind limb; 3.5=full paralysis of hind limb with paralysis of one fore limb; 4=full paralysis of two limbs; 4.5=moribund stage; 5=death. […] The drug treatments were continued till the termination of the study (day 41 post immunization). EAE animals without drug treatment received PBS. Likewise, healthy controls received vehicle.
Clinical disease scores as average maximal scores over the treatment period (mean±SD) and analyzed using Kruskal-Wallis test. […] Significances (p value) between groups were determined using the Newman-Keul test. A value of p<0.05* and above was considered significant.

lymphocytes in blood = assay: Total lymphocyte count in blood of normal mice (lymphopenic effect); type: in vivo, C57BL/6 mice; conditions: normal mice without EAE, 1 mg/kg/day for 19 days
Protocol: The bloods collected in EDTA blood collection tubes (BD Biosciences) were analyzed by an automated hematology analyzer for counting total lymphocytes. For counting of each subset of lymphocytes, 50 μl of blood was mixed with staining buffer (20 μl) containing fluorescence labelled antibodies and red-blood-cells were lysed with FACS lysing solution (BD Biosciences) prior to fluorescence flow-cytometric analysis. For staining of CD3+, CD4+, and CD8+ cells, allophycocvanin (APC)-labeled anti-mouse CD3 (eBioscience clone 17A2), Fluorescein isothiocyanate (FITC)-labeled anti-mouse CD4 (eBioscience clone RM4-5), APC-labeled anti-mouse CD8 (eBioscience clone 53-6.7) and appropriate isotype matched controls.

| SMILES | thrombin-induced RhoA activation (RhoA) | thrombin-induced intracellular Ca2+ influx [1] | thrombin-induced MLC phosphorylation (myosin light chain (MLC)) | thrombin-induced 3-nitrotyrosine levels ([2]; thrombin 0.1 unit/ml 20 min, L-NIO or FeTPPS 10 μM pretreated 30 min, ELISA) | RhoA tyrosine nitration ([2]; various concentrations, incubated 2 hr) | cellular levels of protein-associated 3-nitrotyrosine ([2]; various concentrations, incubated 2 hr, no thrombin) | thrombin-induced development of F-actin stress fiber formation (hBMVECs [3]) | thrombin-induced loss of TEER (hBMVECs [4]) | clinical score at the peak of disease (EAE mice; day 21 post immunization, 1 mg/kg/day from disease onset (GSNO oral, N6022 i.p., FTY720 oral), untreated EAE 3.5±0.5) | clinical score at the remission of disease (EAE mice; day 41 post immunization, 1 mg/kg/day from disease onset (GSNO oral, N6022 i.p., FTY720 oral), untreated EAE 2.5±0.5) | efficacy on EAE disease compared at the same dose (EAE mice; single dose comparison of N6022, GSNO and FTY720, 1 mg/kg/day) | numbers of total lymphocytes, CD3+ T cells, CD4+ T cells and CD8+ cells in blood (lymphocytes in blood) |
| --- | --- | --- | --- | --- | --- | --- | --- | --- | --- | --- | --- | --- |
| CC(=N)NCCC[C@H](N)C(=O)O.Cl.Cl [L-NIO, N^5-(1-Iminoethyl)-L-omithine dihydrochloride] | decreased | had not effect | inhibited | attenuated | – | – | – | – | – | – | – | – |
| Cl.N=c1c[n+](N2CCOCC2)[n-]o1 [SIN-1, 3-morpholinosydnonimine chloride] | enhanced | enhanced | enhanced | – | increased | increased | enhanced | enhanced | – | – | – | – |
| CCCCCCCCc1ccc(CCC(N)(CO)CO)cc1 [FTY720] | – | – | – | – | – | – | – | – | 3.0±0.87 | 1.67±0.58 | less effective | significantly reduced |
